From patent US8323708B2, “Poultry meat and eggs comprising beneficial fatty acids” (Monsanto Technology LLC, priority 2009, dated 2012)

What was measured:
[1] = 21 day broiler study: long chain fatty acid composition of skinless breast meat; format: in vivo, broiler chickens; settings: day 21-42
Protocol: (§1) A 21 day study was conducted to determine whether broiler chickens fed a diet containing SDA could produce meat with elevated levels of omega-3 fatty acids including EPA and DHA.
(§2) Fifty pens of four birds per pen were used. There were 25 pens of males and 25 pens of females. Five pens of males and five pens of females were each fed one of five treatment diets from day 21 to 42 days of age. Prior to day 21 all birds were fed a standard 22% protein starter diet formulated to meet NRC (1994) nutrient requirements (shown in Table 16 as “S” diet). The feed prepared was feed as a crumble.
(§3) The test diets were prepared and fed in mash form. All broilers had ad libitum access to feed and water for the duration of the 21 day study. The composition of the diets (Table 4) and premixes (Table 5) are provided below.
(§4) To help prevent oxidation of the fatty acids, 0.05% ethoxyquin (Rendox) was added to each premix. Premixes were manufactured within 3 days of arrival of ethyl esters. To limit oxidation associated with storage, diets were manufactured once and stored in a refrigerated cooler at 4° C. during the duration of the study.
(§5) For male pens only, four out of the five pens were randomly selected. Two birds from each of these pens were randomly selected (eights birds per treatment). The right and left thigh and right and left breast from these 40 birds were bagged and labeled and frozen. The right breast and thigh samples were analyzed for shelf life stability and the left skinless breast and left boneless, skinless thigh from these same birds were analyzed for fatty acid composition.

[2] = 21 day broiler study: long chain fatty acid composition of thigh meat; format: in vivo, broiler chickens; settings: boneless skinless thigh meat, day 21-42
Protocol: as §1, §2, §3, §4, §5

[3] = Laying hen study: long chain fatty acid composition of eggs; format: in vivo, laying hens; settings: total egg
Protocol: A study was conducted to determine whether laying hens fed a diet enriched in stearidonic acid could produce eggs with elevated levels of beneficial omega-3 fatty acids including EPA and DHA. Mature laying hens […] were randomly allotted to seven dietary treatments (16 hens/treatment) and were fed diets containing the following levels of n-3 fatty acids as described in Table 28 for four weeks. Sixteen birds were given each treatment. Four birds were randomly selected out of the 16 per treatment to obtain eggs during week 4 for fatty acid composition. […] The laying hens had ad libitum access to feed and water. The composition of the diets (Table 29) and premixes (Table 30) are provided below. To help prevent oxidation of the fatty acids, 0.05% ethoxyquin (Rendox) was added to each premix. Premixes were manufactured within 3 days of arrival of ethyl esters. To limit the oxidation associated with storage, diets were manufactured once and stored in a refrigerated cooler at 4° C. during the duration of the study. Eggs collected during […] (days 22-28) were maintained under refrigerated conditions until all eggs for that week were collected. Eggs were sorted by hen and treatment. Two eggs per hen from 4 hens per treatment were taken. The two eggs were weighed individually, cracked and the shell weighed. The difference between fresh egg and shell represented liquid egg weight and served as the basis for further calculations. The liquid fraction from each of the two eggs per hen were combined in a sample cup and homogenized. Samples were analyzed for fatty acids by gas chromatography.

CC/C=C\C/C=C\C/C=C\C/C=C\CCCCC(=O)OCC [SDA Ethyl Ester]
ALA (C18:3n-3) ([1]; ethyl ester 0.416% of diet): 10 mg/100 g
DHA (C22:6n-3) ([1]; ethyl ester 0.416% of diet): 10 mg/100 g
DPA (C22:5 n-3) ([1]; ethyl ester 0.416% of diet): 22.5 mg/100 g
EPA (C20:5n-3) ([1]; ethyl ester 0.416% of diet): 20 mg/100 g
Omega 6/Omega 3 ratio ([1]; ethyl ester 0.416% of diet): 2.9
SDA (C18:4n-3) ([1]; ethyl ester 0.416% of diet): 22.5 mg/100 g
Total omega 3's ([1]; ethyl ester 0.416% of diet): 85 mg/100 g
ALA (C18:3n-3) ([1]; ethyl ester 0.832% of diet): 10 mg/100 g
DHA (C22:6n-3) ([1]; ethyl ester 0.832% of diet): 10 mg/100 g
DPA (C22:5 n-3) ([1]; ethyl ester 0.832% of diet): 30 mg/100 g
EPA (C20:5n-3) ([1]; ethyl ester 0.832% of diet): 27.5 mg/100 g
Omega 6/Omega 3 ratio ([1]; ethyl ester 0.832% of diet): 2.0
SDA (C18:4n-3) ([1]; ethyl ester 0.832% of diet): 40 mg/100 g
Total omega 3's ([1]; ethyl ester 0.832% of diet): 117.5 mg/100 g
ALA (C18:3n-3) ([2]; ethyl ester 0.416% of diet): 82.5 mg/100 g
DHA (C22:6n-3) ([2]; ethyl ester 0.416% of diet): 20 mg/100 g
DPA (C22:5 n-3) ([2]; ethyl ester 0.416% of diet): 37.5 mg/100 g
EPA (C20:5n-3) ([2]; ethyl ester 0.416% of diet): 30 mg/100 g
Omega 6/Omega 3 ratio ([2]; ethyl ester 0.416% of diet): 4.4
SDA (C18:4n-3) ([2]; ethyl ester 0.416% of diet): 187.5 mg/100 g
Total omega 3's ([2]; ethyl ester 0.416% of diet): 362.5 mg/100 g
ALA (C18:3n-3) ([2]; ethyl ester 0.832% of diet): 86.7 mg/100 g
DHA (C22:6n-3) ([2]; ethyl ester 0.832% of diet): 20 mg/100 g
DPA (C22:5 n-3) ([2]; ethyl ester 0.832% of diet): 50 mg/100 g
EPA (C20:5n-3) ([2]; ethyl ester 0.832% of diet): 50 mg/100 g
Omega 6/Omega 3 ratio ([2]; ethyl ester 0.832% of diet): 2.7
SDA (C18:4n-3) ([2]; ethyl ester 0.832% of diet): 386.7 mg/100 g
Total omega 3's ([2]; ethyl ester 0.832% of diet): 593.3 mg/100 g
ALA (C18:3n-3) ([3]; 0.416% of diet): 42.5 mg/100 g
DHA (C22:6n-3) ([3]; 0.416% of diet): 150 mg/100 g
DPA (C22:5 n-3) ([3]; 0.416% of diet): 35 mg/100 g
EPA (C20:5n-3) ([3]; 0.416% of diet): 10 mg/100 g
Omega 6/Omega 3 ratio ([3]; 0.416% of diet): 5.0
SDA (C18:4n-3) ([3]; 0.416% of diet): 10 mg/100 g
Total omega 3's ([3]; 0.416% of diet): 247.5 mg/100 g
ALA (C18:3n-3) ([3]; 0.832% of diet): 55 mg/100 g
DHA (C22:6n-3) ([3]; 0.832% of diet): 182.5 mg/100 g
DPA (C22:5 n-3) ([3]; 0.832% of diet): 60 mg/100 g
EPA (C20:5n-3) ([3]; 0.832% of diet): 22.5 mg/100 g
Omega 6/Omega 3 ratio ([3]; 0.832% of diet): 3.7
SDA (C18:4n-3) ([3]; 0.832% of diet): 25 mg/100 g
Total omega 3's ([3]; 0.832% of diet): 360 mg/100 g

CC/C=C\C/C=C\C/C=C\CCCCCCCC(=O)OCC [ALA Ethyl Ester]
ALA (C18:3n-3) ([3]; 0.932% of diet): 267.5 mg/100 g
DHA (C22:6n-3) ([3]; 0.932% of diet): 132.5 mg/100 g
DPA (C22:5 n-3) ([3]; 0.932% of diet): 22.5 mg/100 g
EPA (C20:5n-3) ([3]; 0.932% of diet): 7.5 mg/100 g
Omega 6/Omega 3 ratio ([3]; 0.932% of diet): 2.9
Total omega 3's ([3]; 0.932% of diet): 430 mg/100 g
ALA (C18:3n-3) ([3]; 1.864% of diet): 622.5 mg/100 g
DHA (C22:6n-3) ([3]; 1.864% of diet): 155 mg/100 g
DPA (C22:5 n-3) ([3]; 1.864% of diet): 32.5 mg/100 g
EPA (C20:5n-3) ([3]; 1.864% of diet): 12.5 mg/100 g
Omega 6/Omega 3 ratio ([3]; 1.864% of diet): 1.5
SDA (C18:4n-3) ([3]; 1.864% of diet): 2.5 mg/100 g
Total omega 3's ([3]; 1.864% of diet): 825 mg/100 g
